Measurements reported in patent US9458141B2, “Low molecular weight thyroid stimulating hormone receptor (TSHR) agonists” (The United States of America, as represented by the …, priority 2008, dated 2016).
Like-named read-outs stand apart in the source and are kept apart here.

Target: T1, human TSHR (Homo sapiens, UniProt P16473)
T1 construct: expressed in transfected cells
Experiment: Homogeneous Time Resolved Fluorescence (HTRF) cAMP assay, TSHR cell line
Type: cell-based
Conditions: for AC50: HTRF cAMP, TSHR cell line, 30 minute incubation; for Emax: read-out: Maximum Activity compared to TSH, 100% activity = response of 30 mU/ml TSH, 0% = DMSO control; for Maximum Activity compared to TSH: 100% activity = response of 30 mU/ml TSH, 0% = DMSO control, in %; call rule not given here

T1 sequence (P16473 21-764): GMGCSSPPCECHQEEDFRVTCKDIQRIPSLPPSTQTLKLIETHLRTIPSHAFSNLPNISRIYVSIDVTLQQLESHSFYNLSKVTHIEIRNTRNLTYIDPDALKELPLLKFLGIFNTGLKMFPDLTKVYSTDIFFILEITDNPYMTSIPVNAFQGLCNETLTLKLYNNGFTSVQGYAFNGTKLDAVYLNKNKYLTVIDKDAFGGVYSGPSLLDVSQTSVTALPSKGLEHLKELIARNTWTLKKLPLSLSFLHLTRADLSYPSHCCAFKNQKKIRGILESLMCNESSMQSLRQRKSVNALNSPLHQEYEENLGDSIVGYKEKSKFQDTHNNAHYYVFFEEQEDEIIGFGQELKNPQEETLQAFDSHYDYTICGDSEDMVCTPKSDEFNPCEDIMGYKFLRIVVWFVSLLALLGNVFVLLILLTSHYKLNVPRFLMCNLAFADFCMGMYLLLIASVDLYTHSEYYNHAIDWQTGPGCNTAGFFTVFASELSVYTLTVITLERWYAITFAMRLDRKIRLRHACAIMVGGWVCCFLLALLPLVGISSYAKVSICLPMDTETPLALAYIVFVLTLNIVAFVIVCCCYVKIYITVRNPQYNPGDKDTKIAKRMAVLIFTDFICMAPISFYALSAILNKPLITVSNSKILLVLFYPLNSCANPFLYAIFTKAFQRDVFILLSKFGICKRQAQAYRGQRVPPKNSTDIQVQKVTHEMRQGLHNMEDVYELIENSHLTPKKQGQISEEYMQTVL

SMILES | AC50 | also measured
COc1ccc(C2Nc3ccccc3C(=O)N2Cc2ccc(C(C)(C)C)cc2)cc1COc1ccc(NC(C)=O)cc1 (stereo not shown) [Structure 175] | inactive | –
CCC(=O)Nc1ccc(OCc2cc(C3Nc4ccccc4C(=O)N3Cc3ccccc3)ccc2OC)cc1 (stereo not shown) [Structure 177] | – | AC50 (read-out: AC50): 5.62 µM; Emax: 29%
COc1ccc(C2Nc3ccccc3C(=O)N2Cc2ccco2)cc1 (stereo not shown) [Structure 178] | inactive | –
COc1ccc(-c2nc3ccccc3n2Cc2ccccc2)cc1COc1ccc(NC(C)=O)cc1 [Structure 179] | inactive | –
O=C1c2ccccc2NC(c2ccccc2O)N1Cc1ccccc1 (stereo not shown) [Structure 180] | inactive | –
COc1ccc(-c2nc3ccc(Cl)cc3c(=O)n2Cc2ccccc2)cc1COc1ccc(NC(C)=O)cc1 [Structure 181] | – | AC50 (read-out: AC50): 3.98 µM; Emax: 22.5%
COc1ccc(C2Nc3ccccc3C(=O)N2Cc2ccco2)cc1COc1c(C)cccc1C (stereo not shown) [Structure 182] | inactive | –
O=C1CC(c2ccco2)CC2=C1C(c1ccncc1)n1nc(C(F)(F)F)nc1N2 (stereo not shown) [Structure 183] | inactive | –
COc1ccc(C=O)cc1COc1ccc(NC(C)=O)cc1 [Structure 184] | inactive | –
COc1ccc(C2Nc3ccccc3C(=O)N2CCCN(C)C)cc1COc1ccc(NC(C)=O)cc1 (stereo not shown) [Structure 186] | inactive | –
COc1ccc(C2Nc3ccc(Cl)cc3C(=O)N2Cc2ccccc2)cc1COc1ccc(C(N)=O)cc1 (stereo not shown) [Structure 187] | inactive | –
COc1ccc(C2Nc3ccccc3C(=O)N2Cc2ccco2)cc1COc1ccc([N+](=O)[O-])cc1 (stereo not shown) [Structure 188] | inactive | –
COc1ccc(CN(Cc2ccccc2)C(=O)c2ccccc2O)cc1 [Structure 189] | – | Maximum Activity compared to TSH: 24.00; AC50 (read-out: AC50): 22.4 µM
COc1ccc(-c2nc3ccc(NC(C)=O)cc3c(=O)n2Cc2ccccc2)cc1COc1ccc(NC(C)=O)cc1 [Structure 191] | inactive | –
O=c1c2ccccc2nc(-c2ccccc2O)n1Cc1ccccc1 [Structure 192] | inactive | –
CC(=O)Nc1cccc(OCc2cccc(C3Nc4ccccc4C(=O)N3Cc3ccco3)c2)c1 (stereo not shown) [Structure 193] | inactive | –
O=C(c1ccccc1O)N(Cc1ccccc1)Cc1ccccc1 [Structure 194] | – | Maximum Activity compared to TSH: 27.50; AC50 (read-out: AC50): 31.6 µM
COc1ccc(-c2nc3ccccc3c(=O)n2Cc2ccccc2)cc1OCc1ccc(NC(C)=O)cc1 [Structure 195] | inactive | –
COc1ccc(C2Nc3ccccc3C(=O)N2Cc2ccccc2)cc1COc1ccc(C)cc1 (stereo not shown) [Structure 196] | inactive | –
COc1ccc(C2Nc3ccccc3C(=O)N2Cc2ccc(C(F)(F)F)cc2)cc1COc1ccc(NC(C)=O)cc1 (stereo not shown) [Structure 197] | – | AC50 (read-out: AC50): 2.82 µM; Emax: 17%
COc1ccc(C2Nc3ccccc3C(=O)N2Cc2ccccc2OC)cc1COc1ccc(NC(C)=O)cc1 (stereo not shown) [Structure 198] | – | AC50 (read-out: AC50): 20 µM; Emax: 18%
COc1ccc(C2Nc3ccccc3C(=O)N2Cc2ccccc2)cc1COc1cccc(C)c1 (stereo not shown) [Structure 200] | – | Maximum Activity compared to TSH: 38.00; AC50 (read-out: AC50): 28.2 µM
COc1ccc(C2Nc3ccccc3C(=O)N2Cc2ccccc2C)cc1COc1ccc(NC(C)=O)cc1 (stereo not shown) [Structure 201] | inactive | –
COc1ccc(C(=O)O)cc1COc1ccc(NC(C)=O)cc1 [Structure 202] | inactive | –
COc1ccc(C(=O)C2C(=O)C(=O)N(Cc3ccco3)C2c2cccs2)cc1 (stereo not shown) [Structure 205] | inactive | –

SMILES | AC50 | also measured
COc1ccc(-c2nc3ccc(Cl)cc3c(=O)n2Cc2ccccc2)cc1COc1ccc(NC(C)=O)cc1 [Structure 206] | inactive | –
COc1ccc(C2Nc3ccccc3C(=O)N2Cc2ccco2)cc1COc1ccccc1 (stereo not shown) [Structure 207] | inactive | –
COc1ccc(C2Nc3ccccc3C(=O)N2Cc2ccccc2)cc1COc1cccc(C(F)(F)F)c1 (stereo not shown) [Structure 208] | inactive | –
COc1ccc(C2Nc3ccccc3C(=O)N2CCO)cc1COc1ccc(NC(C)=O)cc1 (stereo not shown) [Structure 209] | inactive | –
COc1ccc(O)c(-c2nc3ccccc3c(=O)n2Cc2ccccc2)c1 [Structure 211] | inactive | –
O=C1CC(c2ccco2)CC2=C1C(c1ccc(O)cc1)n1nc(C(F)(F)F)nc1N2 (stereo not shown) [Structure 213] | inactive | –
COc1ccc(C2Nc3ccccc3C(=O)N2Cc2ccc(C(C)(C)C)cc2)cc1COc1ccc(NC(C)=O)cc1 (stereo not shown) [Structure 214] | inactive | –
COc1ccc(CN(Cc2ccccc2)C(=O)Nc2ccccc2)cc1COc1ccc(NC(C)=O)cc1 [Structure 215] | – | Maximum Activity compared to TSH: 20.00
COc1ccc(O)c(C2Nc3ccccc3C(=O)N2Cc2ccccc2)c1 (stereo not shown) [Structure 216] | inactive | –
COc1ccc2c(c1OC)C(=O)N1c3ccccc3C(=O)N(Cc3ccco3)C21 (stereo not shown) [Structure 217] | inactive | –
COc1ccc(-c2nc3cccc(OC)c3c(=O)n2Cc2ccccc2)cc1COc1ccc(NC(C)=O)cc1 [Structure 218] | – | AC50 (read-out: AC50): 39.8 µM; Emax: 38%
O=C(c1ccccc1O)N(Cc1ccco1)Cc1ccco1 [Structure 219] | inactive | –
COc1ccc(CN(Cc2ccccc2)C(=O)c2ccccc2O)cc1COc1ccc(NC(C)=O)cc1 [Structure 220] | – | Maximum Activity compared to TSH: 32.00; AC50 (read-out: AC50): 17.8 µM
COc1ccc(C2Nc3ccccc3C(=O)N2CCO)cc1COc1ccc(NC(C)=O)cc1 (stereo not shown) [Structure 221] | inactive | –
COc1ccc(CN(Cc2ccccc2)[S+](=O)([O-])c2ccccc2)cc1COc1ccc(NC(C)=O)cc1 [Structure 223] | inactive | –
COc1ccc(C2Nc3ccccc3C(=O)N2Cc2ccccc2)cc1COc1ccc(NC(C)=O)cc1 (stereo not shown) [Structure 227] | inactive | –
COc1ccc(C2Nc3ccccc3C(=O)N2Cc2ccccc2)cc1COc1ccccc1OC (stereo not shown) [Structure 229] | – | AC50 (read-out: AC50): 8.91 µM; Emax: 23.5%
COc1ccc(C2Nc3ccccc3C(=O)N2Cc2ccccc2Cl)cc1COc1ccc(NC(C)=O)cc1 (stereo not shown) [Structure 231] | – | AC50 (read-out: AC50): 3.55 µM; Emax: 16%
COc1ccc(C2Nc3ccccc3C(=O)N2Cc2ccc(C(F)(F)F)cc2)cc1COc1ccc(NC(C)=O)cc1 (stereo not shown) [Structure 234] | – | Maximum Activity compared to TSH: 18.00; AC50 (read-out: AC50): 8.91 µM
COc1ccc(CN(Cc2ccccc2)C(=O)COC(C)=O)cc1COc1ccc(NC(C)=O)cc1 [Structure 236] | – | Maximum Activity compared to TSH: 32.00; AC50 (read-out: AC50): 35.5 µM
COc1cccc(-c2nc(SC)nc3sc(C(=O)NC(C)(C)C)c(N)c23)c1 [Structure 239] | – | Maximum Activity compared to TSH: 30.00; AC50 (read-out: AC50): 17.8 µM
COc1ccc(CN(Cc2ccccc2)C(=O)c2ccno2)cc1COc1ccc(NC(C)=O)cc1 [Structure 248] | – | AC50 (read-out: AC50): 70.8 µM; Emax: 32%
COc1ccc(CN(Cc2ccccc2)C(=O)c2ccno2)cc1COc1ccc(NC(C)=O)cc1 [Structure 249] | – | Maximum Activity compared to TSH: 38.00; AC50 (read-out: AC50): 50.1 µM
COc1ccc(OCc2cc(C3Nc4ccccc4C(=O)N3Cc3ccccc3)ccc2OC)cc1 (stereo not shown) [Structure 256] | – | Maximum Activity compared to TSH: 24.00; AC50 (read-out: AC50): 5.01 µM
COc1ccc(C2Nc3ccccc3C(=O)N2CC(C)(C)C)cc1COc1ccc(NC(C)=O)cc1 (stereo not shown) [Structure 257] | – | AC50 (read-out: AC50): 20 µM; Emax: 20%

More lines, main results first:

AC50 | SMILES | also measured
inactive | COc1ccc(C2Nc3ccccc3C(=O)N2CCc2ccc(Cl)cc2Cl)cc1COc1ccc(NC(C)=O)cc1 (stereo not shown) [Structure 224] | –
inactive | COc1ccc(C2Nc3ccccc3C(=O)N2CCc2ccc(Cl)cc2Cl)cc1COc1ccc(NC(C)=O)cc1 (stereo not shown) [Structure 225] | –
inactive | COc1ccc(C2Nc3ccccc3C(=O)N2Cc2ccccc2)cc1OCc1ccc(NC(C)=O)cc1 (stereo not shown) [Structure 228] | –
inactive | COc1cc(C2Nc3ccccc3C(=O)N2Cc2ccccc2)ccc1OCc1ccc(NC(C)=O)cc1 (stereo not shown) [Structure 230] | –
inactive | COc1ccc(C2Nc3ccccc3C(=O)N2Cc2ccccc2)cc1COc1ccc(C)cc1 (stereo not shown) [Structure 232] | –
inactive | COc1ccc(C2NC(=O)c3ccccc3N2)cc1COc1ccc(NC(C)=O)cc1 (stereo not shown) [Structure 233] | –
inactive | COc1ccc(C2Nc3cccc(OC)c3C(=O)N2Cc2ccccc2)cc1COc1ccc(NC(C)=O)cc1 (stereo not shown) [Structure 235] | –
inactive | COc1ccc(C2Nc3ccccc3C(=O)N2Cc2ccco2)cc1COc1ccc(N)cc1 (stereo not shown) [Structure 237] | –
inactive | COc1ccc(C2Nc3ccccc3C(=O)N2Cc2ccccc2)cc1COc1ccc(Cl)cc1 (stereo not shown) [Structure 238] | –
inactive | COc1cccc(-c2nc(SC)nc3sc(C(=O)NC(C)(C)C)c(N)c23)c1 [Structure 240] | –
inactive | COc1ccc(C2Nc3ccccc3C(=O)N2Cc2ccc(-c3ccccc3)cc2)cc1COc1ccc(NC(C)=O)cc1 (stereo not shown) [Structure 242] | –
inactive | COc1ccc(C2Nc3ccccc3C(=O)N2Cc2ccccc2)cc1Oc1ccc(NC(C)=O)cc1 (stereo not shown) [Structure 243] | –
inactive | O=C1CC(c2ccco2)CC2=C1C(c1ccncc1)n1nc(C(F)(F)F)nc1C2 (stereo not shown) [Structure 244] | –
inactive | COc1ccc(C2Nc3ccccc3C(=O)N2Cc2ccco2)cc1COc1ccc([N+](=O)[O-])cc1 (stereo not shown) [Structure 245] | –
inactive | COc1ccc(CN2C(=O)N(c3ccccc3)C(=O)C2c2ccccc2)cc1COc1ccc(NC(C)=O)cc1 (stereo not shown) [Structure 247] | –
inactive | COc1ccc(C2Nc3ccccc3C(=O)N2Cc2ccccc2)cc1COc1ccc(C#N)cc1 (stereo not shown) [Structure 250] | –
inactive | O=C1c2ccccc2NC(c2cc(Br)c3c(c2)OCO3)N1Cc1ccco1 (stereo not shown) [Structure 251] | –
inactive | COc1cc(C2Nc3ccccc3C(=O)N2Cc2ccccc2)ccc1OCc1ccc(NC(C)=O)cc1 (stereo not shown) [Structure 252] | –
inactive | O=C1c2ccccc2NC(c2ccccc2)N1Cc1ccco1 (stereo not shown) [Structure 254] | –
inactive | O=C1c2ccccc2NC(c2ccccc2)N1Cc1ccco1 (stereo not shown) [Structure 255] | –
